Results: US10689376B2, “Substituted-3H-imidazo [4,5-c] pyridine and 1H-pyrrolo[2,3-c]pyridine series of novel ectonucleotide pyrophosphatase/phosphodiesterase-1 (ENPP1) and stimulator for interferon genes (STING) modulators as cancer immunotherapeutics” (Stingray Therapeutics, Inc., priority 2017, dated 2020)
pIC50: −log10 of the molar value.

biological target: Recombinant Human ENPP-1 Protein (Homo sapiens (Human), UniProt P22413); assay: ENPP1 Inhibition Assay; format: biochemical; conditions: substrate thymidine 5′-monophosphate p-nitrophenol ester, absorbance at 405 nm
Method: 1. ENPP1 Inhibition Assay
Materials: • Assay Buffer: 1 mM CaCl2, 0.2 mM ZnCl2, 50 mM Tris, pH 9.0 • Substrate: 8 mM Thymidine 5′-monophosphate p-nitrophenol ester sodium salt (Sigma Cat # T4510) • Enzyme: 5 ng/μL Recombinant Human ENPP-1 Protein (R&D Cat #6136-EN-010) DMSO • 96-well clear assay plates
An eight point serial dilution of drugs was prepared in 10× in assay buffer with the final assay concentrations starting at 10 μM, 3 μM, 1 μM, 0.3 μM . . . 0 μM. A dilution of DMSO was included as a control. The assay plate was set up as follows with each well in duplicate: 81 μL assay buffer+10 μL ENPP1 inhibitor or DMSO+5 μL Substrate+4 μL Enzyme. Both the enzyme and substrate were added to opposite sides of the well to ensure that there was no interaction until all wells had both components. The plate was then centrifuged gently for 10 seconds, followed by an incubation at 37° C. for 45 minutes. The reaction was quantified by measuring absorbance at 405 nm using the Envision.
IC50 values are determined using GraphPad Prism 5 software. The data were entered as an X-Y plot into the software as percent inhibition for each concentration of the drug. The concentration values of the drug were log transformed and the nonlinear regression was carried out using the “sigmoidal dose-response (variable slope)” option within the GraphPad software to model the data and calculate IC50 values. The IC50 values reported are the concentration of drug at which 50% inhibition was reached.

Sequence of Recombinant Human ENPP-1 Protein (P22413 whole entry): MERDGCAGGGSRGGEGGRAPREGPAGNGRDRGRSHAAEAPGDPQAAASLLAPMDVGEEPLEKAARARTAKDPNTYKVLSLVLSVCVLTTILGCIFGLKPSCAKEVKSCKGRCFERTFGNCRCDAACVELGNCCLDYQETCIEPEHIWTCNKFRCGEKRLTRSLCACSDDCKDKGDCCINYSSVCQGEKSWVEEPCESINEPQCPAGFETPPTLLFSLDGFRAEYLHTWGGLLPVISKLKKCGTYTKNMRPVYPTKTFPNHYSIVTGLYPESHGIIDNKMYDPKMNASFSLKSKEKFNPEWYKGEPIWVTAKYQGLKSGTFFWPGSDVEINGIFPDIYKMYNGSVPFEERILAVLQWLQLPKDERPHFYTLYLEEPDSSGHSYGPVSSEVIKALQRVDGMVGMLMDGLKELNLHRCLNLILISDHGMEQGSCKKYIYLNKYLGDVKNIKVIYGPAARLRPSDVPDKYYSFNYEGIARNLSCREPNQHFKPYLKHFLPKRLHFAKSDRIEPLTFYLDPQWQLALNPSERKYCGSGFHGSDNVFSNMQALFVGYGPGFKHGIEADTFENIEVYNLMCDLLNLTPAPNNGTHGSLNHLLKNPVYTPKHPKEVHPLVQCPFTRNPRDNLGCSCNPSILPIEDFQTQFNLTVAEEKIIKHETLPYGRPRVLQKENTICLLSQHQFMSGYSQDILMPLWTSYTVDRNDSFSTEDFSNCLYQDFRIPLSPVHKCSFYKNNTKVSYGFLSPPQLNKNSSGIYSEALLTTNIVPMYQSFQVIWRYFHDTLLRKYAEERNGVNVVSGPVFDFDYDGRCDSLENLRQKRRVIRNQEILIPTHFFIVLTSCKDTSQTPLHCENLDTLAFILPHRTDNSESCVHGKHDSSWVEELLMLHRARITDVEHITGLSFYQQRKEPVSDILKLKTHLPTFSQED

`COc1ccc(NC(=O)CSc2nc3cc(Cl)ncc3[nH]2)cc1OC` [Compound 3, 2-((6-Chloro-3H-imidazo[4,5-c]pyridin-2-yl)thio)-N-(3,4-dimethoxyphenyl)acetamide] was tested. Which pIC50 did it give?
The pIC50 was 6.24.

How did the pIC50 turn out when `O=C(CSc1nc2cc(Cl)ncc2[nH]1)Nc1ccc2c(c1)OCO2` [Compound 7, N-(benzo[d][1,3]dioxol-5-yl)-2-((6-chloro-1H-imidazo[4,5-c]pyridin-2-yl)thio)acetamide] was run?
Its pIC50 is less than 4.30.

With `COc1ccc(NC(=O)CSc2nc3c(C)cncc3[nH]2)cc1OC` [Compound 9, N-(3,4-dimethoxyphenyl)-2-((7-methyl-1H-imidazo[4,5-c]pyridin-2-yl)thio)acetamide] as the compound, how does the pIC50 read?
Its pIC50 is 5.35.

`Cc1cncc2[nH]c(SCC(=O)Nc3ccc4c(c3)OCO4)nc12` [Compound 10, N-(benzo[d][1,3]dioxol-5-yl)-2-((7-methyl-1H-imidazo[4,5-c]pyridin-2-yl)thio)acetamide] was tested. Which pIC50 did it give?
The pIC50 was 4.30.

`COc1ccc(NC(=O)C(C)Sc2nc3cnc(Cl)cc3[nH]2)cc1OC` (centres unmarked) [Compound 14, 2-((6-Chloro-1H-imidazo[4,5-c]pyridin-2-yl)thio)-N-(3,4-dimethoxyphenyl)propanamide] was tested. Which pIC50 did it give?
Its pIC50 is 5.45.

`COc1ccc(NC(=O)CSc2nc3c(C)cncc3[nH]2)cc1O` [Compound 16, N-(3-hydroxy-4-methoxyphenyl)-2-((7-methyl-1H-imidazo[4,5-c]pyridin-2-yl)thio)acetamide] was tested. Which pIC50 did it give?
The pIC50 was 5.64.

How did the pIC50 turn out when `COc1cc(NC(=O)CSc2nc3c(C)cncc3[nH]2)ccc1O` [Compound 18, N-(4-hydroxy-3-methoxyphenyl)-2-((7-methyl-3H-imidazo[4,5-c]pyridin-2-yl)thio)acetamide] was run?
Its pIC50 is 5.08.

`O=C(CSc1nc2cnc(Cl)cc2[nH]1)Nc1cccc(O)c1` [Compound 25, 2-((6-Chloro-1H-imidazo[4,5-c]pyridin-2-yl)thio)-N-(3-hydroxyphenyl)acetamide] was tested. Which pIC50 did it give?
The pIC50 was 5.10.

`COc1ccc(NC(=O)CSc2nc3cnc(Cl)cc3[nH]2)cc1F` [Compound 27, 2-((6-Chloro-1H-imidazo[4,5-c]pyridin-2-yl)thio)-N-(3-fluoro-4-methoxyphenyl)acetamide] was tested. Which pIC50 did it give?
Its pIC50 is 6.40.

`COc1cc(NC(=O)CSc2nc3cc(Cl)ncc3[nH]2)ccc1OC(F)F` [Compound 29, 2-((6-Chloro-1H-imidazo[4,5-c]pyridin-2-yl)thio)-N-(4-(difluoromethoxy)-3-methoxyphenyl)acetamide] was tested. Which pIC50 did it give?
Its pIC50 is 5.93.

`O=C(CSc1nc2cnc(Cl)cc2[nH]1)Nc1ccc(O)cc1` [Compound 33, 2-((6-chloro-1H-imidazo[4,5-c]pyridin-2-yl)thio)-N-(4-hydroxyphenyl)acetamide] was tested. Which pIC50 did it give?
The pIC50 was 5.10.

With `COc1ccc(NC(=O)CSc2nc3cnc(Cl)cc3[nH]2)cc1OC(F)(F)F` [Compound 35, 2-((6-chloro-1H-imidazo[4,5-c]pyridin-2-yl)thio)-N-(4-methoxy-3-(trifluoromethoxy)phenyl)acetamide] as the compound, how does the pIC50 read?
The pIC50 was 4.39.

`O=C(CSc1nc2cc(Cl)ncc2[nH]1)Nc1ccc(OC(F)F)cc1` [Compound 40, 2-((6-Chloro-3H-imidazo[4,5-c]pyridin-2-yl)thio)-N-(4-(difluoromethoxy)phenyl)acetamide] was tested. Which pIC50 did it give?
The pIC50 was 4.47.

How did the pIC50 turn out when `COc1ccc(NC(=O)C(C)Sc2nc3cnc(C(F)(F)F)cc3[nH]2)cc1O` (centres unmarked) [Compound 42, N-(3-Hydroxy-4-methoxyphenyl)-2-((6-(trifluoromethyl)-3H-imidazo[4,5-c]pyridin-2-yl)thio)propanamide] was run?
Its pIC50 is 4.95.

With `COc1c(F)cc(NC(=O)CSc2nc3cnc(C(F)(F)F)cc3[nH]2)cc1F` [Compound 44, N-(3,5-Difluoro-4-methoxyphenyl)-2-((6-(trifluoromethyl)-3H-imidazo[4,5-c]pyridin-2-yl)thio)acetamide] as the compound, how does the pIC50 read?
The pIC50 was 4.99.

How did the pIC50 turn out when `COc1ccc(NC(=O)CSc2nc3cnc(Cl)c(C)c3[nH]2)cc1O` [Compound 49, 2-((6-Chloro-7-methyl-1H-imidazo[4,5-c]pyridin-2-yl)thio)-N-(3-hydroxy-4-methoxyphenyl)acetamide] was run?
Its pIC50 is 6.18.

How did the pIC50 turn out when `COc1ccc(NC(=O)CSc2nc3cnc(Cl)c(C)c3[nH]2)cc1F` [Compound 50, 2-((6-Chloro-7-methyl-1H-imidazo[4,5-c]pyridin-2-yl)thio)-N-(3-fluoro-4-methoxyphenyl)acetamide] was run?
Its pIC50 is 5.25.

`Cc1c(Cl)ncc2nc(SCC(=O)Nc3ccc(F)c(O)c3)[nH]c12` [Compound 51, 2-((6-Chloro-7-methyl-1H-imidazo[4,5-c]pyridin-2-yl)thio)-N-(4-fluoro-3-hydroxyphenyl)acetamide] was tested. Which pIC50 did it give?
The pIC50 was 5.90.

With `COc1ccc(NC(=O)CSc2nc3cnc(Cl)c(C)c3[nH]2)cc1OC` [Compound 52, 2-((6-Chloro-7-methyl-1H-imidazo[4,5-c]pyridin-2-yl)thio)-N-(3,4-dimethoxyphenyl)acetamide] as the compound, how does the pIC50 read?
Its pIC50 is 5.94.

With `COc1cc2nc(NC(=O)CSc3nc4cc(Cl)ncc4[nH]3)sc2cc1OC` [Compound 54, 2-((6-Chloro-3H-imidazo[4,5-c]pyridin-2-yl)thio)-N-(5,6-dimethoxybenzo[d]thiazol-2-yl)acetamide] as the compound, how does the pIC50 read?
The pIC50 was 5.24.

How did the pIC50 turn out when `O=C(CSc1nc2cc(C(F)(F)F)ncc2[nH]1)Nc1ccc(OC(F)(F)F)c(O)c1` [Compound 61, N-(3-Hydroxy-4-(trifluoromethoxy)phenyl)-2-((6-(trifluoromethyl)-3H-imidazo[4,5-c]pyridin-2-yl)thio)acetamide] was run?
Its pIC50 is 4.65.

How did the pIC50 turn out when `O=C(CSc1nc2cc(Cl)ncc2[nH]1)Nc1nc2ccccc2s1` [Compound 62, N-(Benzo[d]thiazol-2-yl)-2-((6-chloro-3H-imidazo[4,5-c]pyridin-2-yl)thio)acetamide] was run?
Its pIC50 is 4.96.

`COc1ccc(NC(=O)CSc2nc3cc(C#N)ncc3[nH]2)cc1O` [Compound 67, 2-((6-Cyano-3H-imidazo[4,5-c]pyridin-2-yl)thio)-N-(3-hydroxy-4-methoxyphenyl)acetamide] was tested. Which pIC50 did it give?
The pIC50 was 6.75.

How did the pIC50 turn out when `N#Cc1cc2nc(SCC(=O)Nc3ccc(F)c(O)c3)[nH]c2cn1` [Compound 69, 2-((6-Cyano-3H-imidazo[4,5-c]pyridin-2-yl)thio)-N-(4-fluoro-3-hydroxyphenyl)acetamide] was run?
The pIC50 was 6.67.

`COc1ccc(NC(=O)CS(=O)(=O)c2nc3cnc(Cl)cc3[nH]2)cc1F` [Compound 70, 2-((6-chloro-1H-imidazo[4,5-c]pyridin-2-yl)sulfonyl)-N-(3-fluoro-4-methoxyphenyl)acetamide] was tested. Which pIC50 did it give?
Its pIC50 is 4.52.

With `COc1ccc(NC(=O)CSc2nc3cc(Cl)ncc3[nH]2)cn1` [Compound 72, 2-((6-chloro-3H-imidazo[4,5-c]pyridin-2-yl)thio)-N-(6-methoxypyridin-3-yl)acetamide] as the compound, how does the pIC50 read?
Its pIC50 is 5.48.

With `COc1ccc(NC(=O)CSc2nc3c(C)c(C#N)ncc3[nH]2)cc1OC` [Compound 77, 2-((6-Cyano-7-methyl-3H-imidazo[4,5-c]pyridin-2-yl)thio)-N-(3,4-dimethoxyphenyl)acetamide] as the compound, how does the pIC50 read?
The pIC50 was 6.58.

How did the pIC50 turn out when `Cc1c(C#N)ncc2[nH]c(SCC(=O)Nc3ccc(F)c(O)c3)nc12` [Compound 79, 2-((6-Cyano-7-methyl-3H-imidazo[4,5-c]pyridin-2-yl)thio)-N-(4-fluoro-3-hydroxyphenyl)acetamide] was run?
The pIC50 was 5.19.

`COc1ccc(NC(=O)CSc2nc3cc(Cl)ncc3[nH]2)cc1N` [Compound 82, N-(3-Amino-4-methoxyphenyl)-2-((6-chloro-3H-imidazo[4,5-c]pyridin-2-yl)thio)acetamide] was tested. Which pIC50 did it give?
The pIC50 was 5.22.

How did the pIC50 turn out when `COc1ccc(NC(=O)CSc2nc3cc(Cl)ncc3[nH]2)cc1[N+](=O)[O-]` [Compound 83, 2-((6-Chloro-3H-imidazo[4,5-c]pyridin-2-yl)thio)-N-(4-methoxy-3-nitrophenyl)acetamide] was run?
The pIC50 was 5.34.

`COc1cnc(NC(=O)CSc2nc3cc(Cl)ncc3[nH]2)cc1OC` [Compound 85, 2-((6-chloro-1H-imidazo[4,5-c]pyridin-2-yl)thio)-N-(4,5-dimethoxypyridin-2-yl)acetamide] was tested. Which pIC50 did it give?
Its pIC50 is 6.58.

With `COc1ccc(NC(=O)CSc2nc3cc(Cl)ncc3[nH]2)nc1OC` [Compound 87, 2-((6-chloro-1H-imidazo[4,5-c]pyridin-2-yl)thio)-N-(5,6-dimethoxypyridin-2-yl)acetamide] as the compound, how does the pIC50 read?
The pIC50 was 5.70.

How did the pIC50 turn out when `COc1ccc(NC(=O)CSc2nc3cc(Cl)ncc3[nH]2)cc1OCC(F)(F)F` [Compound 89] was run?
Its pIC50 is 4.95.

`COc1ccc(NC(=O)CSc2nc3c(C)c(C#N)ncc3[nH]2)cc1F` [Compound 93, 2-((6-Cyano-7-methyl-3H-imidazo[4,5-c]pyridin-2-yl)thio)-N-(3-fluoro-4-methoxyphenyl)acetamide] was tested. Which pIC50 did it give?
Its pIC50 is 6.65.

How did the pIC50 turn out when `COc1nc(NC(=O)CSc2nc3c(C)c(C#N)ncc3[nH]2)ccc1O` [Compound 96, 2-((6-cyano-7-methyl-3H-imidazo[4,5-c]pyridin-2-yl)thio)-N-(5-hydroxy-6-methoxypyridin-2-yl)acetamide] was run?
The pIC50 was 5.69.
